“Also recorded” adds a separate entry of the source. Positions of bridges follow the written chain, without caps; N, C: chain ends. No end group written: not given here.
Tests used:
[1] = tested on: Transient middle cerebral artery occlusion (tMCAO); assay: Stepping test (forelimb akinesia) after tMCAO stroke; format: in vivo, rats; settings: all experimental conditions (Table 22); by Day 28 post-surgery
Procedure: For the purposes of this example, Transient middle cerebral artery occlusion (tMCAO) procedure Day is defined as “Day 1” in this study. On the day of surgery anesthesia were induced with 4% isoflurane in a mixture of 70% N2O and 30% O2 and maintained with 1.5-2% isoflurane.
The tMCAO procedures were performed according to the method described R. Schmid-Elsaesser et al. Briefly, the right CCA (Common Carotid Artery) was exposed through a midline neck incision and carefully dissected free from surrounding nerves and fascia—from its bifurcation to the base of the skull. The occipital artery branches of the ECA (External Carotid Artery) were then isolated, and these branches were dissected and coagulated. The ECA was dissected further distally and coagulated along with the terminal lingual and maxillary artery branches, which was then divided. The ICA (Internal Carotid Artery) was isolated and carefully separated from the adjacent vagus nerve, and the pterygopalatine artery was ligated close to its origin with a 5-0 nylon suture (SMI, Belgium). Next, a 4-0 silk suture was tied loosely around the mobilized ECA stump, and a 4 cm length of 4-0 monofilament nylon suture (the tip of the suture was blunted by using a flame, and the suture was coated with polylysine, prior to insertion) was inserted through the proximal ECA into the ICA and thence into the circle of Willis, effectively occluding the MCA. The surgical wound was closed and the animals were returned to their cages to recover from anesthesia. […]
Animals were tested for forelimb akinesia in a stepping test (ST). The animal was held with its hind limbs fixed with one hand and the forelimb not to be monitored with the other, while the unrestrained fore-paw touches the table. The number of adjusting steps are counted while the animal is moved sideways along the table surface (85 cm in approximately five seconds), in the forehand & backhand direction for both forelimbs. […]

hind limb ischemia [2] = assay: Blood flow by non contact laser Doppler in mouse hind limb ischemia model; format: in vivo, Balb/c mice
From the text: A stable hind limb ischemia model has been described previously and is generally characterized by uniform ischemic damage useful for examining the effect of various therapies (Goto, et al. Tokai J Exp Clin Med, 31(3):128 2006; Kang Y, et al. PLoS One. 2009; 4(1):e4275)). The hind limb ischemia model in mice used in this example involves two ligations of the proximal end of the femoral artery and its dissection between the two ligatures. The surgery causes obstruction of the blood flow and subsequently leads to severe ischemic damage (Goto, et al.; Kang, et al.). In this experiment, healthy adult female Balb/c mice were used. Hind limb ischemia was induced in mice using protocols previously described. Briefly, Balb/c female mice were maintained on a standard diet with water available ad libitum. Mice were anesthetized and an incision was made in the skin in the inguinal area. The femoral artery was ligated twice with 6-0 silk thread and transected between the ligatures after this the wound was closed with 4-0 silk thread and the mouse was allowed to recover. […]
Blood flow in legs from both sides of the animals was measured with a non contact laser Doppler before surgery and on days: 1, 7, 15, 21, 28, 35, 42 and 49 post operation. Blood flow measurements were expressed as the ratio of the flow in the ischemic limb to that in the normal limb.
(§1) The model used in this example is the same as for Example 1. Briefly, the hind limb ischemia model in mice used in this example involves two ligations of the proximal end of the femoral artery and its dissection between the two ligatures. The surgery causes obstruction of the blood flow and subsequently leads to severe ischemic damage (Goto, et al.; Kang, et al.). In this experiment, healthy adult female Balb/c mice were used. Hind limb ischemia was induced in mice using protocols previously described. Briefly, Balb/c female mice were maintained on a standard diet with water available ad libitum. Mice were anesthetized and an incision was made in the skin in the inguinal area. The femoral artery was ligated twice with 6-0 silk thread and transected between the ligatures after this the wound was closed with 4-0 silk thread and the mouse was allowed to recover.
An Angiotensin (1-7) polypeptide composition (PanCyte) and vehicle control (DPBS) were supplied as ready to use solutions and were stored at 4° C. until use. PanCyte was injected subcutaneously (500 μg/kg or 50 μg/kg) daily starting on day 1, 24 hours after inducing ischemia, until the end of the study. Negative control mice were injected subcutaneously with a vehicle.
The model and procedures used for this example is the same as for those in Examples 1 and 2, unless otherwise specified.
An Angiotensin (1-7) polypeptide composition (PanCyte, cyclized Asp^1-Arg^2-Val^3-Ser^4-Ile^5-His^6-Cys (SEQ ID NO:22)) and vehicle control (DPBS) were supplied as ready to use solutions and were stored at 4° C. until use. In groups 2F-5F, PanCyte was injected subcutaneously (1 μg/kg, 5 μg/kg, 25 μg/kg, 50 μg/kg) daily starting on day 1, 24 hours after inducing ischemia, until the end of the study. In group 6F, an osmotic Alzet pump was implanted subcutaneously and provided for continuous release of PanCyte over the duration of the study. Negative control mice were injected subcutaneously with vehicle (DPBS).

hind limb ischemia [3] = assay: Capillary density in muscle sections, mouse hind limb ischemia model; format: in vivo, Balb/c mice; settings: Example 2, 49 days after treatment beginning
From the text: as §1
An Angiotensin (1-7) polypeptide composition (PanCyte) and vehicle control (DPBS) were supplied as ready to use solutions and were stored at 4° C. until use. […]
Sections of muscle samples were taken from the same areas in 6-7 animals from each group. Capillaries were counted under a microscope in a total 12 random fields from different sections. Density was expressed as the mean number of capillaries per field of view. […]

For “cyclized Asp^1-Arg^2-Val^3-Ser^4-Ile^5-His^6-Cys (SEQ ID NO:22) (DRVSIHC; bridge 4-7; not fully specified; printed as Asp1-Arg2-Val3-Ser4-Ile5-His6-Cys7) [PanCyte, cyclic angiotensin peptide]”, the “stepping test performance vs vehicle” value [1] was “significantly improved the performance”, the blood flow restored (hind limb ischemia [2]; Example 2, 50 μg/kg SC) was 85 % of its normal values and the “improvement in blood flow vs vehicle” value (hind limb ischemia [2]; Example 2, 50 μg/kg SC daily (3F), from day 21 up to day 49, p<0.05-0.001) was “statistically significant improvement in blood flow”. For the same substance, the blood flow restored (hind limb ischemia [2]; Example 2, 500 μg/kg SC) was 85 % of its normal values, the “improvement in blood flow vs vehicle” value (hind limb ischemia [2]; Example 2, 500 μg/kg SC daily (2F), from day 21 up to day 49, p<0.05-0.001) was “statistically significant improvement in blood flow” and the “improvement in blood flow vs vehicle” value (hind limb ischemia [2]; Example 3, 1 μg/kg SC daily (2F), days 42 and 49) was “blood flow improvement reached statistically significance”. For the same substance, the “improvement in blood flow vs vehicle” value (hind limb ischemia [2]; Example 3, 5 μg/kg SC daily (3F), days 42 and 49) was “blood flow improvement reached statistically significance”, the “improvement in blood flow vs vehicle” value (hind limb ischemia [2]; Example 3, 25 μg/kg SC daily (4F), days 42 and 49) was “blood flow improvement reached statistically significance” and the “improvement in blood flow vs vehicle” value (hind limb ischemia [2]; Example 3, 50 μg/kg SC daily injections (5F), day 35 up to day 49) was “significant improvement in blood flow”. The “improvement in blood flow vs vehicle” value (hind limb ischemia [2]; Example 3, 50 μg/kg continuous SC by Alzet pump (6F), day 14 up to day 49) was “Statistically significant improvement in blood flow; also recorded: particularly good and early blood perfusion restoration”, the blood flow restored (hind limb ischemia [2]; Example 3, SC 1-50 μg/kg, dose dependent manner) was “up to 84 % of its normal values” and the “capillary density (number of capillaries per field) vs control” value (hind limb ischemia [3]; 50 μg/kg SC daily) was “significantly increased the number of capillaries”. For the same substance, the “capillary density (number of capillaries per field) vs control” value (hind limb ischemia [3]; 500 μg/kg SC daily) was “significantly increased the number of capillaries”.
